This is an account of results in patent publication US8980610B2 (priority 2009, dated 2015).

Assay [1] has as its system X-MLV. Format: cell-based, Xenotropic Murine leukemia virus. The note with it: for RF (Reduction Factor) / Sample Titer: 2-8° C.
Assay [2] deals with X-MLV. Description: TRITON X-100 X-MLV inactivation in GE2-Fcγ-Fcε clarified conditioned media, TCID50 assay. Type of assay: cell-based, Xenotropic Murine leukemia virus. On the procedure:
Virus inactivation kinetics obtained by exposure to low pH, TRITON® X-100 and arginine were studied using sample process intermediates of a recombinant antibody designated GE2-Fcγ-Fcε. All studies were performed at 2-8° C.
For the TRITON® X-100 inactivation studies, TRITON® X-100 was added to the GE2-Fcγ-Fcε clarified conditioned media (CCM) at concentrations of 0.10% (v/v) and 0.20% (v/v). MABSELECT™ (GE Healthcare Bio-Sciences Corp., Piscataway, N.J., USA) Protein-A chromatography eluates containing GE2-Fcγ-Fcε with the pH adjusted to 3.7 or 3.9 were used as the starting material for the low pH viral inactivation studies. Neutralized MABSELECT™ Eluate buffer (1.0 M arginine-HCl, ˜5 mM Tris, pH 7.3 (+/−) 0.5) and neutralized MABSELECT™ Eluate buffer containing GE2-Fcγ-Fcε were also used as process intermediates for the additional inactivation studies. The process intermediates used in these studies were known to be stable under the examined conditions.
TRITON® X-100 inactivation experiments were performed in duplicate using final concentrations of 0.10% or 0.20% (v/v) TRITON® X-100 in GE2-Fcγ-Fcε clarified conditioned media.

A further assay has as its system polio virus. The following applies: cited from earlier work.
Another assay relates to SuHV-1. Type of assay: cell-based, Suid herpesvirus 1.
The subject of another assay is MMV. Type of assay: cell-based, Murine minute virus. The note with it: 2-8° C.; for RF (Reduction Factor): 5 mM Tris + 1.0M Arginine-HCl (pH 7.0).
Assay [3] has as its system X-MLV. Format: cell-based, Xenotropic Murine leukemia virus.
The mark [4] stands for this setting: 0.10% (v/v) in GE2-Fcγ-Fcε clarified conditioned media, 2-8° C., 5 min.
Where [5] appears, read: 0.10% (v/v) in GE2-Fcγ-Fcε clarified conditioned media, 2-8° C., 45 min.
Where [6] appears, read: 0.10% (v/v) in GE2-Fcγ-Fcε clarified conditioned media, 2-8° C., 120 min.
Setting [7] is: 0.20% (v/v) in GE2-Fcγ-Fcε clarified conditioned media, 2-8° C., 30 min.
Where [8] appears, read: 0.20% (v/v) in GE2-Fcγ-Fcε clarified conditioned media, 2-8° C., 45 min.
Setting [9] is: 5 mM Tris + 1.0M Arginine-HCl (pH 7.0), 2-8° C., 15 min.
Where [10] appears, read: 5 mM Tris + 1.0M Arginine-HCl (pH 7.0), 2-8° C., 30 min.
[11] abbreviates: 5 mM Tris + 1.0M Arginine-HCl (pH 7.0), 2-8° C., 60 min.
Where [12] appears, read: 5 mM Tris + 1.0M Arginine-HCl (pH 7.0), 2-8° C., 120 min.
The mark [13] stands for this setting: 5 mM Tris + 1.0M Arginine-HCl (pH 7.0), 2-8° C., 240 min (non-quenched).
Setting [14] is: 5 mM Tris + 1.0M Arginine-HCl (pH 7.0), 2-8° C., 240 min (quenched).
Setting [15] is: 1.0 M arginine-HCl, ~5 mM Tris, pH ~7.0, with GE2-Fcγ-Fcε 3.3 mg/mL, 2-8° C., 120 min.

Values joined by “and” are separate entries in the source; they are usually repeats but may differ in a detail not shown here. Identical values can stand only once. Like-named read-outs stand apart in the source and are kept apart here.

Take `NCC(=O)O` [Glycine, glycine, reference compound]: in the assay on X-MLV [1] (pH 7), the “Adjusted titer of sample” value was 6.00 Log10 TCID50/mL and 5.50 Log10 TCID50/mL and 5.60 Log10 TCID50/mL and 5.38 Log10 TCID50/mL and 5.63 Log10 TCID50/mL; the “Adjusted titer of sample (Output virus titer)” value was 5.63 Log10 TCID50/mL and 5.88 Log10 TCID50/mL; the “Titer of quenched sample” value was 5.00 Log10 TCID50/mL and 4.50 Log10 TCID50/mL and 4.63 Log10 TCID50/mL and 4.38 Log10 TCID50/mL and 4.88 Log10 TCID50/mL; the “Titer of sample from TCID50 assay” value is listed as 5.60 Log10 TCID50/mL.
For the compound TRITON ® X-100, the “Adjusted titer of sample” value with X-MLV [2] (setting [4]) is listed as “≦2.00 Log10 TCID50/mL”; with X-MLV [2] (setting [5]), “≦1.99 Log10 TCID50/mL”; with X-MLV [2] (setting [7]) it was “≦1.99 Log10 TCID50/mL”; in the assay on X-MLV [2] (setting [8]), “≦1.99 Log10 TCID50/mL”. Moreover, the “Titer of quenched sample” value in the assay on X-MLV [2] (setting [4]) was “≦0.70 Log10 TCID50/mL”; in the assay on X-MLV [2] (setting [5]), “≦0.69 Log10 TCID50/mL”; in the assay on X-MLV [2] (setting [6]), “≦0.69 Log10 TCID50/mL”; with X-MLV [2] (setting [7]) it was “≦0.69 Log10 TCID50/mL”; in the assay on X-MLV [2] (setting [8]) it was “≦0.69 Log10 TCID50/mL”. Besides, the “Adjusted titer of sample (Output virus titer)” value with X-MLV [2] (setting [6]) is recorded as “≦1.99 Log10 TCID50/mL”. Besides, the “RF (Reduction Factor)” value in the assay on X-MLV [2] (setting [6]) was not below 3.1; in the assay on X-MLV [2] (0.20% (v/v) in GE2-Fcγ-Fcε clarified conditioned media, 2-8° C., 15 min), “≧3.1”; in the assay with X-MLV [2] (setting [7]), “≧3.1”; in the assay with X-MLV [2] (setting [8]) it was “≧3.1”; in the assay on X-MLV [2] (0.20% (v/v) in GE2-Fcγ-Fcε clarified conditioned media, 2-8° C., 120 min), not below 2.6. For the same compound, the “exposure time after which X-MLV was below detection limits” value in the assay with X-MLV [2] (0.10% and 0.20% TRITON X-100) came to 5 min.
As for `N=C(N)NCCC[C@H](N)C(=O)O` [Arginine, arginine], the “inactivation of non-enveloped polio virus (in words)” value with polio virus is “ineffective”. Also, the “Adjusted titer of sample” value with SuHV-1 (setting [9]) is 2.95 Log10 TCID50/mL and 2.89 Log10 TCID50/mL; in the assay on SuHV-1 (setting [10]), “≦1.57 Log10 TCID50/mL”; in the assay on SuHV-1 (setting [11]), “≦1.57 Log10 TCID50/mL”; in the assay on SuHV-1 (setting [12]), “≦1.57 Log10 TCID50/mL”; in the assay with SuHV-1 (setting [13]) it was “≦1.53 Log10 TCID50/mL”; with MMV, 6.83 Log10 TCID50/mL and 7.33 Log10 TCID50/mL. Moreover, the “Adjusted titer of sample” value in the assay on MMV (15 min) is 7.50 Log10 TCID50/mL and 7.25 Log10 TCID50/mL; in the assay with MMV (30 min), 7.63 Log10 TCID50/mL and 7.38 Log10 TCID50/mL; with MMV (60 min), 7.63 Log10 TCID50/mL and 7.75 Log10 TCID50/mL; in the assay with MMV (120 min), 7.50 Log10 TCID50/mL and 7.75 Log10 TCID50/mL. Besides, the “RF (Reduction Factor)” value in the assay on SuHV-1 (setting [9]) is 2.30 and 2.11; in the assay with MMV (240 min (non-quenched)) it was 0.30 and 0.17; in the assay with MMV (240 min (quenched)) it was −0.25; with X-MLV [1] (5 mM Tris + 0.10M Arginine-HCl (pH 7.0), 30 min), 0.2 and 0.3; in the assay on X-MLV [1] (5 mM Tris + 0.10M Arginine-HCl (pH 7.0), 120 min), 0.3; in the assay on X-MLV [1] (5 mM Tris + 0.50M Arginine-HCl (pH 7.0), 15 min), 1.7 and 1.6. For the same compound, the “RF (Reduction Factor)” value was 2.3 and 2.0 in the assay on X-MLV [1] (5 mM Tris + 0.50M Arginine-HCl (pH 7.0), 30 min); 2.7 and 2.5 in the assay with X-MLV [1] (5 mM Tris + 0.50M Arginine-HCl (pH 7.0), 60 min); 3.4 and 3.5 in the assay with X-MLV [1] (5 mM Tris + 0.50M Arginine-HCl (pH 7.0), 120 min); 3.4 and 3.5 with X-MLV [1] (5 mM Tris + 0.50M Arginine-HCl (pH 7.0), 120 min, listed as arginine); “≧4.2” in the assay on X-MLV [3] (setting [15]). The “Titer of quenched sample” value is 1.95 Log10 TCID50/mL and 1.89 Log10 TCID50/mL with SuHV-1 (setting [9]); “≦0.57 Log10 TCID50/mL” in the assay with SuHV-1 (setting [10]); “≦0.57 Log10 TCID50/mL” with SuHV-1 (setting [11]); “≦0.57 Log10 TCID50/mL” with SuHV-1 (setting [12]); “≦0.57 Log10 TCID50/mL” in the assay with SuHV-1 (setting [14]); 6.38 Log10 TCID50/mL and 6.75 Log10 TCID50/mL in the assay on MMV. Also, the “Titer of quenched sample” value was 6.50 Log10 TCID50/mL and 6.25 Log10 TCID50/mL in the assay on MMV (15 min); 6.63 Log10 TCID50/mL and 6.38 Log10 TCID50/mL with MMV (30 min); 6.63 Log10 TCID50/mL and 6.75 Log10 TCID50/mL in the assay on MMV (60 min); 6.50 Log10 TCID50/mL and 6.75 Log10 TCID50/mL in the assay with MMV (120 min). For the same compound, the “Titer of sample from TCID50 assay” value is “≦1.53 Log10 TCID50/mL” in the assay on SuHV-1 (setting [13]); 6.83 Log10 TCID50/mL and 7.33 Log10 TCID50/mL in the assay with MMV. Also, the “Adjusted titer of sample (Output virus titer)” value is “≦1.57 Log10 TCID50/mL” in the assay on SuHV-1 (setting [14]); 7.38 Log10 TCID50/mL and 7.75 Log10 TCID50/mL in the assay on MMV. Besides, in the assay on SuHV-1 (1.0 M arginine (pH 7.0), duplicate runs), the “exposure time after which SuHV-1 titer was below the assay limit of detection” value is 30 min. Moreover, the “Sample Titer” value with X-MLV [1] (15 min) is 5.59 Log10 TCID50/mL and 5.71 Log10 TCID50/mL and 4.10 Log10 TCID50/mL and 4.04 Log10 TCID50/mL; with X-MLV [1] (30 min), 5.71 Log10 TCID50/mL and 5.29 Log10 TCID50/mL and 3.50 Log10 TCID50/mL and 3.68 Log10 TCID50/mL; in the assay with X-MLV [1] (60 min), 5.65 Log10 TCID50/mL and 5.29 Log10 TCID50/mL and 3.03 Log10 TCID50/mL and 3.15 Log10 TCID50/mL. Further, in the assay with X-MLV [1] (pH 7), the “X-MLV inactivation (in words)” value is listed as “did not occur”. In addition, the “X-MLV Reduction Factor in all of the arginine studies” value in the assay on X-MLV [3] (1 M arginine, with and without GE2-Fcγ-Fcε, 120 min of exposure) is listed as not below 4.1. For the same compound, the Output titer result is reported as “≦1.17 Log10 TCID50/mL” in the assay on X-MLV [3] (1.0 M arginine-HCl, ~5 mM Tris, pH ~7.0, no GE2-Fcγ-Fcε, 2-8° C., 120 min) and “≦1.17 Log10 TCID50/mL” with X-MLV [3] (setting [15]). In the assay on X-MLV [3] (neutral solution containing 1 M arginine, Runs 9-12), the “exposure time after which X-MLV was at, or below, detectable levels” value was determined as 15 min.
